Data as given in patent US20050245452A1, “Pharmaceutical use of novispirins” (Novozymes A/S, priority 2004, published 2005).

Key:
[1] = tested on: P. acnes (erythromycin sensitive); test: MIC on Propionebacterium acnes, erythromycin sensitive strain; format: cell-based
Experimental: (§1) Minimal Inhibitory Concentration (MIC) of Novispirin G10 (SEQ ID NO: 16) was evaluated against P. acnes. Two strains were tested—one of which is clinically resistant to clindamycin and erythromycin.

[2] = tested on: P. acnes (erythromycin resistant); test: MIC on Propionebacterium acnes, erythromycin resistant strain; format: cell-based; details: clinically resistant to clindamycin and erythromycin
Experimental: as §1

[3] = tested on: Staphylococcus aureus (ATCC 25923); test: Staphylococcus aureus wound infection in pigs (wound chambers, 4 hour time course); format: in vivo, Göttinger minipigs; details: 1 ml applied
Experimental: The bacterial strain, Staphylococcus aureus, used in the study was ATCC 25923. The amino acid sequence of Novispirin G10 is shown in SEQ ID NO: 16.
Novispirin G10 was diluted in 0.01% acetic acid containing 0.1% BSA with a final concentration of 1 mg (substrate)/ml (solution); 100 micrograms/ml; 10 micrograms/ml and 1 microgram/ml. The carrier control was 0.01% acetic acid containing 0.1% BSA. As a positive control was used Synthetic Protegrin 1 (Charité, Institut f. Biochemie d. Humboldt Universität Berlin) diluted in 0.01% acetic acid containing 0.1% BSA with a final concentration of 100 micrograms/ml.
The chambers are made of one piece of titanium, have a screw top cover (also made of titanium) and were built in teamwork with Cranio Construct Bochum. The chambers have a height of 14 mm, an inner diameter of 25 mm and an outer diameter of 32 mm without baseplate (with baseplate: 50 mm).
After providing permission to conduct experiments with vertebrates in compliance with German animal protection laws, Göttinger minipigs (Fa. Ellegaard, Dalmose, Denmark; female, 6 months old, 25-30 kg weight) were chosen to implant the chambers on. The pigs were kept at least 2 weeks in the stable, fed a standard porcine diet and housed at 20° C. to 30° C. in an atmosphere of approximately 65% humidity with a light cycle of 12 hours on and 12 hours off. The animals used for this study appeared, during the experiments, clinically healthy—rectal temperature and body weight remained normal over the observed period.
Before wounding the skin was surgically prepared, washed with soap and disinfected with Octenisept (S&M, Norderstedt, Germany) for five minutes. Twelve BO-Chambers were implanted on the pigs back and flank between the base of the scapula and the iliac crest. The wounds were spaced a minimum of 5 cm apart and were created in four rows parallel to the columna vertebralis, two rows on each side of the columna vertebrtalis. The exact size and shape of the wounds were ensured by a special custom-made “round-scalpel” (also built in teamwork with Cranio Construct Bochum), which has a diameter of 33 mm. Epidermal, dermal subcutaneous tissues were removed, possible bleedings stanched by bipolar diathermy. The chambers were placed with an additionally secant v-incision at positions 6 respectively 12 o'clock on the musculus thoracicus longus fascia and the muscle fascia of the external ripcage muscles. The incisions were sutured with 2/0 Monocryl followed by the closure of the chambers. Povidone-iodine salve (Betaisodonna-salve, Mundipharma, Austria) was smothered on the wound edges. The chambers were dressed with paraffin gauze (Jelonet, Smith & Nephew, Lohfelden, Germany) and sterile compresses. Dressings were changed every second day under sedation (as described above).
Bacterial Background of each chamber was measured every second day, to detect potential contamination. Only one contaminated chamber was detected. Seven days post operation ten chambers were inoculated with bacteria.
For bacteria progeny Staphylococcus aureus (ATCC 25923) was plated on LB-Agar plate and incubated at 37° C. for 18 hours. One colony was picked and transfered into 3 ml LB-Medium for over night culture at 37° C. at 300 rpm. Over night culture was diluted in 50 ml fresh LB-Medium and incubated for 2.5 hours at 37° C. at 200 rpm.
Bacteria were pelleted, 4000 rpm, 5 min, Mergafuge 1.0 R (Heraeus, Hanau, Germany), and resuspended in PBS. Amount of containg bacteria was detremined by OD600 nm-measurement and calculated as follows: Colony forming Unit/ml=OD600 nm×2.5×10^8 (bacteria)
To inoculate one chamber 5×10^8 were used.
The establishment of the infection was proven by the measurement of bacterial counts per chamber. All inoculated chambers were infected after two days. Chamber No. 2 keeps bacteria free.
At day four after infection the antimicrobial effect of the testing substrate was measured in a time course of 4 hours in duration. […]

[4] = tested on: IFN-γ, TNF-α, IL4, IL-6 and IL-10 in lung supernatants; test: Lung cytokine response (ELISA of lung supernatants) in P. aeruginosa lung infection in rats; format: in vivo, Lewis rat; design: Lung cytokine responses (Mean + SD): IL-4 / Lung cytokine responses (Mean + SD): IL-6 / Lung cytokine responses (Mean + SD): IL-10 / Lung cytokine responses (Mean + SD): IFN-gamma / Lung cytokine responses (Mean + SD): TNF-alpha: unit not given here
Experimental: The bacterial strain, Pseudomonas aeruginosa, used in the study is CF86/57388A (1997), which is isolated from a cystic fibrosis patient and keeps stable mucoid phenotype. The rat strain used in the study is Lewis rat (7 weeks old, female) imported from Germany. Both bacterial challenge and drug administration were done intratracheally. All rats were challenged with mucoid P. aeruginosa in alginate. The concentration of the bacteria was 1×10^10 CFU/ml and each rat received 0.1 ml (1×10^9 CFU) bacteria. Control group received placebo (sterile saline, 0.1 ml/rat) twice at hour 0 and 3, and the Novispirin G10 group received the peptide (0.1 mg/ml, 0.1 ml/rat) twice at hour 0 and 3. The animals were sacrificed on day 3, 5, 7 and 10 after challenge for parameters evaluation. Supernatants of the lungs were harvested from days 3, 5 and 7 after lung infection and treatment. Interferon-gamma (IFN-γ), tumor necrosis factor-alpha (TNF-α), interleukin4 (IL4), IL-6 and IL-10 were measured by using ELISA kits (Nordic BioSite, Sweden).

Substance: Novispirin G10: novispirin antimicrobial polypeptide; amino acid sequence shown in SEQ ID NO: 16 (KNLRRIIRKGIHIIKKYG; Synthetic antimicrobial peptide)
- Minimal Inhibitory Concentration (MIC) [1]: 2
- Minimal Inhibitory Concentration (MIC) [2]: 1
- Mean CFU per ml sample volume (chamber fluid) ([3]; 1 mg/ml, 0 hours): 10700000 CFU/ml
- Mean CFU per ml sample volume (chamber fluid) ([3]; 1 mg/ml, 1 hour): 2817 CFU/ml
- Mean CFU per ml sample volume (chamber fluid) ([3]; 1 mg/ml, 2 hours): 2100 CFU/ml
- Mean CFU per ml sample volume (chamber fluid) ([3]; 1 mg/ml, 3 hours): 833 CFU/ml
- Mean CFU per ml sample volume (chamber fluid) ([3]; 1 mg/ml, 4 hours): 1233 CFU/ml
- Mean CFU per ml sample volume (chamber fluid) ([3]; 1 microgram/ml, 0 hours): 9060000 CFU/ml
- Mean CFU per ml sample volume (chamber fluid) ([3]; 1 microgram/ml, 1 hour): 2508333 CFU/ml
- Mean CFU per ml sample volume (chamber fluid) ([3]; 1 microgram/ml, 2 hours): 159067 CFU/ml
- Mean CFU per ml sample volume (chamber fluid) ([3]; 1 microgram/ml, 3 hours): 33858 CFU/ml
- Mean CFU per ml sample volume (chamber fluid) ([3]; 1 microgram/ml, 4 hours): 148333 CFU/ml
- Mean CFU per ml sample volume (chamber fluid) ([3]; 10 micrograms/ml, 0 hours): 5065000 CFU/ml
- Mean CFU per ml sample volume (chamber fluid) ([3]; 10 micrograms/ml, 1 hour): 440500 CFU/ml
- Mean CFU per ml sample volume (chamber fluid) ([3]; 10 micrograms/ml, 2 hours): 304500 CFU/ml
- Mean CFU per ml sample volume (chamber fluid) ([3]; 10 micrograms/ml, 3 hours): 40910 CFU/ml
- Mean CFU per ml sample volume (chamber fluid) ([3]; 10 micrograms/ml, 4 hours): 1563188 CFU/ml
- Mean CFU per ml sample volume (chamber fluid) ([3]; 100 micrograms/ml, 0 hours): 1330000 CFU/ml
- Mean CFU per ml sample volume (chamber fluid) ([3]; 100 micrograms/ml, 1 hour): 790033 CFU/ml
- Mean CFU per ml sample volume (chamber fluid) ([3]; 100 micrograms/ml, 2 hours): 195125 CFU/ml
- Mean CFU per ml sample volume (chamber fluid) ([3]; 100 micrograms/ml, 3 hours): 142765 CFU/ml
- Mean CFU per ml sample volume (chamber fluid) ([3]; 100 micrograms/ml, 4 hours): 8467 CFU/ml
- Lung cytokine responses (Mean + SD): IFN-gamma ([4]; Day 3, lung supernatant): 65.3 ± 28.6
- Lung cytokine responses (Mean + SD): IL-4 ([4]; Day 3, lung supernatant): 34.5 ± 4.5
- Lung cytokine responses (Mean + SD): IL-6 ([4]; Day 3, lung supernatant): 74.1 ± 10.0
- Lung cytokine responses (Mean + SD): IL-10 ([4]; Day 3, lung supernatant): 51.7 ± 2.6
- Lung cytokine responses (Mean + SD): TNF-alpha ([4]; Day 3, lung supernatant): 159.2 ± 23.8
- Lung cytokine responses (Mean + SD): IFN-gamma ([4]; Day 5, lung supernatant): 116.6 ± 42.1
- Lung cytokine responses (Mean + SD): IL-4 ([4]; Day 5, lung supernatant): 45.3 ± 5.9
- Lung cytokine responses (Mean + SD): IL-6 ([4]; Day 5, lung supernatant): 65.2 ± 11.1
- Lung cytokine responses (Mean + SD): IL-10 ([4]; Day 5, lung supernatant): 57.8 ± 7.6
- Lung cytokine responses (Mean + SD): TNF-alpha ([4]; Day 5, lung supernatant): 128.1 ± 19.0
- Lung cytokine responses (Mean + SD): IFN-gamma ([4]; Day 7, lung supernatant): 79.9 ± 16.2
- Lung cytokine responses (Mean + SD): IL-4 ([4]; Day 7, lung supernatant): 37.3 ± 5.9
- Lung cytokine responses (Mean + SD): IL-6 ([4]; Day 7, lung supernatant): 61.5 ± 11.0
- Lung cytokine responses (Mean + SD): IL-10 ([4]; Day 7, lung supernatant): 51.3 ± 2.9
- Lung cytokine responses (Mean + SD): TNF-alpha ([4]; Day 7, lung supernatant): 121.8 ± 19.6
- All 5 kinds of cytokine levels compared to the control group ([4]; day 3, early phase of the infection): significantly lower
